Assay [1] deals with root rot on pea (Fusarium solani f. sp. pisi). Kind of assay: Test Example 3: seed treatment of pea, control of root rot, with reference compounds. The following applies: pea seeds; for Incidence of disease: untreated 53. The assay is classed as in vivo. Also noted: key to Incidence of disease: % = (non-budding seeds + diseased seedlings)×100/total seeds; key to Control value: control value = 100×(A−B)/A, A = untreated, B = treated incidence. The method, then: Incidence of disease=(Number of no budding seeds and number of seedlings in which development of disease was observed)×100/(Number of total disseminated seeds) “Equation 1” Control value=100×(A−B)/A “Equation 2”
(§1) 10 μl of a dimethylsulphoxide solution of the compound (1a) or compound (1b) and 10 g of pea (Waiseiakabanakinusaya) seeds were put in a 50 ml tube and mixed to allow the compound (1a) or compound (1b) to stick to the surface of the seeds and then the mixture was allowed to stand still overnight to obtain treated seeds of the present invention. A plastic pot was filled with sandy soil, and the treated seeds of the present invention were disseminated. Then the seeds were covered with sandy soil, which had been mixed with a bran medium on which root rot on pea (Fusarium solani f. sp. pisi) had been allowed to grow and the peas were grown in a greenhouse of from 22 to 24° C. for six days while sprinkling water appropriately. A spore suspension of root rot on pea was perfused on the root of the seedlings for inoculation and the peas were allowed to grow in a greenhouse for further six days and the control effect was checked.
Besides, the incidence of disease was also checked in the case of seeds without the treatment with the agent in order to calculate the control value. Also, 2-[2-(2-methyl-phenoxymethyl)-phenyl]-2-methoxy-N-methyl-acetamide, which is described in International Publication WO 95/27,693 and hereinafter referred to as compound A, and 2-[2-(2-chloro-5-methyl-phenoxymethyl)-phenyl]-2-methoxy-N-methyl-acetamide, which is described in International Publication WO 96/07,633 and hereinafter referred to as compound B, were used as reference compounds.
(§2) The incidence of disease was calculated by Equation 1 and the control value was calculated by Equation 2 based on the incidence of disease.

The test system is the same in assay [2]. Kind of assay: Test Example 1: seed treatment of pea, control of root rot. It is filed as in vivo. The settings on record: pea seeds, 10 gai/100 kg seed. The method, then:
as §1, with “the” for “the compound (1a) or”
Besides, the incidence of disease was also checked in the case of seeds without the treatment with the agent in order to calculate the control value.
as §2
Incidence of disease=(Number of no budding seeds and number of seedlings in which development of disease was observed)×100/(Number of total disseminated seeds) “Equation 1” Control value=100×(A−B)/A “Equation 2” […]

Another assay has as its system rice 'Bakanae' disease. Kind of assay: Test Example 2: immersion of unhulled rice seeds affected with rice 'Bakanae' disease. The assay is classed as in vivo, Gibberella fujikuroi. The arrangement: key to Incidence of disease: % of seedlings diseased: diseased×100/total seedlings; key to Control value: 100×(A−B)/A, from incidence of disease (untreated A, treated B). The following applies: rice seeds immersed 24 hours; for Incidence of disease: untreated 19.2. As to the method: Incidence of disease=(Number of no budding seeds and number of seedlings in which development of disease was observed)×100/(Number of total disseminated seeds) “Equation 1” Control value=100×(A−B)/A “Equation 2” The flowable of the compound (1a) and the flowable of the compound (1b) were diluted with water to prepare an agent solution containing the compound (1a) or compound (1b). Unhulled rice seeds (Tanginbozu) affected with rice ‘Bakanae’ disease was immersed in the agent solution for 24 hours and then the unhulled rice seeds were taken out of the agent solution and air dried to obtain treated seeds. The treated seeds were immersed in water at 12° C. for 4 days and subsequently in water at 30° C. overnight. A plastic pot was filled with sandy soil, and the treated seeds were disseminated and allowed to grow in a greenhouse at 26° C. for 23 days to investigate the control effect. Besides, the incidence of disease was also checked in the case of seeds without the treatment with the agent in order to calculate the control value. The incidence of disease was calculated by Equation 3 and the control value was calculated based on the incidence of disease by Equation 2. Incidence of disease=(Number of seedlings in which development of disease was observed)×100/(Number of total seedlings) “Equation 3”

For the compound `CNC(=O)C(OC)c1ccccc1COc1ccccc1C` (centres unmarked) [Compound A, 2-[2-(2-methyl-phenoxymethyl)-phenyl]-2-methoxy-N-methyl-acetamide, reference compound], in assay [1] (2.5 gai/100 kg seed), the Control value amounted to 57 and the Incidence of disease turned out to be 23. Further, in assay [1] (10 gai/100 kg seed), the Control value is on record as 87 and the Incidence of disease came to 7.
In the same order, the values of `CNC(=O)C(OC)c1ccccc1COc1cc(C)ccc1Cl` (centres unmarked) [Compound B, 2-[2-(2-chloro-5-methyl-phenoxymethyl)-phenyl]-2-methoxy-N-methyl-acetamide, reference compound] are 62, 20, 81 and 10.
In the same order, the values of `CNC(=O)[C@H](OC)c1ccccc1COc1cc(C)ccc1C` [Compound (1a)] are 97, 4, 100 and 0.
As to `CNC(=O)C(OC)c1ccccc1COc1cc(C)ccc1C` (racemic) [Compound (1b)], the Control value is 81 in assay [1] (2.5 gai/100 kg seed); 100 in assay [1] (10 gai/100 kg seed); 100 in assay [2]; 95 in the assay on rice 'Bakanae' disease (62.5 ppm); 93 in the assay on rice 'Bakanae' disease (125 ppm); 92 with rice 'Bakanae' disease (500 ppm). This compound gave a Control value in the assay with rice 'Bakanae' disease (2000 ppm) of 93. Also, the Incidence of disease in assay [1] (2.5 gai/100 kg seed) is given as 10; in assay [1] (10 gai/100 kg seed) it was 0; in assay [2] (untreated 33), 0; in the assay with rice 'Bakanae' disease (62.5 ppm), 0.9; in the assay with rice 'Bakanae' disease (125 ppm), 1.4; in the assay with rice 'Bakanae' disease (500 ppm), 1.6. The Incidence of disease with rice 'Bakanae' disease (2000 ppm) is on record as 1.3.

(Values after patent publication US8293681B2, “Seed treatment agent and method for protecting plant” (Sumitomo Chemical Company, Ltd., priority 2008, dated 2012).)
